Reference: patent US20100158992A1, “PIPERAZINE-SUBSTITUTED PYRIDAZINONE DERIVATIVES USEFUL AS GLUCAN SYNTHASE INHIBITORS” (Schering Corporation, priority 2007, published 2010)
In brackets after ≈: the same amount, converted by molar mass.

Legend:
Assay type in all cases: cell-based
[1] = test system: Saccharomyces cerevisiae (C51); experiment: Microbroth susceptibility testing, yeast (MIC); details: read-out: MIC Saccharomyces cerevisiae (C51)
Experimental: (§1) Microbroth Susceptibility Testing Methods
(§2) Yeast susceptibility testing procedure followed the NCCLS document M27-A2 (Reference Method for Broth Dilution Antifungal Susceptibility Testing of Yeasts; Approved Standard-Second Edition (ISBN 1-56238-469-4). NCCLS, 940 West Valley Road, Suite 1400 Wayne, Pa. 19087-1898 USA, 2002) with the following modifications:
(§3) 1. The final test volume was 100 μl and not 200 μl as stipulated. 2. For testing Saccharomyces cerevisiae strain PM503 YPD was used in place of RPMI 1640 broth.

Candida glabrata (C624) = experiment: Microbroth susceptibility testing, yeast (MIC); details: Nakaseomyces glabratus; strain C624
Experimental: as §1, §2, §3

Candida albicans (C693) = experiment: Microbroth susceptibility testing, yeast (MIC); details: strain C693
Experimental: as §1, §2, §3

Candida albicans (C697) = experiment: Microbroth susceptibility testing, yeast (MIC); details: strain C697
Experimental: as §1, §2, §3

[2] = test system: Aspergillus fumigatus (ND158); experiment: Microbroth susceptibility testing, filamentous fungi (MEC); details: strain ND158, minimum effective concentration
Experimental: Microbroth Susceptibility Testing Methods Filamentous fungi susceptibility testing procedure follows the NCCLS document M38-A (Reference Method for Broth Dilution Antifungal Susceptibility Testing of Filamentous Fungi; Approved Standard (ISBN 1-56238-470-8). NCCLS, 940 West Valley Road, Suite 1400 Wayne, Pa. 19087-1898 USA, 2002) with the following modifications: 1. The final test volume was 100 μl and not 200 μl as stipulated. 2. The end point used to assess the in vitro activity of glucan synthase inhibitors may require microscopic evaluation of cell morphology in the test wells (Kurtz et al., Antimicrobial Agents and Chemotherapy, 38, 1480-1489, 1994; […] et al., Antimicrobial Agents and Chemotherapy, 45, 327-330, 2001).

Structure (SMILES)	MIC [1]	MIC (Candida glabrata (C624))	MIC (Candida albicans (C693))	MIC (Candida albicans (C697))	minimal effective concentration [2]
O=c1c(N2CCOCC2)c(N2CCN(S(=O)(=O)Cc3ccccc3)CC2)cnn1-c1ccccc1 [compound 253]	1 to 5 µg/mL (≈ 2.02 to 10.1 µM)	1 to 5 µg/mL (≈ 2.02 to 10.1 µM)	5 to 50 µg/mL (≈ 10.1 to 101 µM)	1 to 5 µg/mL (≈ 2.02 to 10.1 µM)	5 to 50 µg/mL
O=c1c(SCc2ccccc2)c(N2CCN(S(=O)(=O)c3ccccc3[N+](=O)[O-])CC2)cnn1-c1ccccc1 [compound 67]	5 to 50 µg/mL (≈ 8.87 to 88.7 µM)	1 to 5 µg/mL (≈ 1.77 to 8.87 µM)	5 to 50 µg/mL (≈ 8.87 to 88.7 µM)	5 to 50 µg/mL (≈ 8.87 to 88.7 µM)	5 to 50 µg/mL
O=c1c(OC2Cc3ccccc3C2)c(N2CCN(Cc3cccs3)CC2)cnn1-c1ccccc1 [compound 428]	0.5 to 1 µg/mL (≈ 1.03 to 2.06 µM)	5 to 50 µg/mL (≈ 10.3 to 103 µM)	5 to 50 µg/mL (≈ 10.3 to 103 µM)	1 to 5 µg/mL (≈ 2.06 to 10.3 µM)	1 to 5 µg/mL
O=c1c(OCc2ccccc2)c(N2CCN(Cc3c(Cl)cccc3Cl)CC2)cnn1-c1ccccc1 [compound 339]	1 to 5 µg/mL (≈ 1.92 to 9.59 µM)	1 to 5 µg/mL (≈ 1.92 to 9.59 µM)	5 to 50 µg/mL (≈ 9.59 to 95.9 µM)	1 to 5 µg/mL (≈ 1.92 to 9.59 µM)	1 to 5 µg/mL
Cc1nc[nH]c1CN1CCN(c2cnn(-c3ccccc3)c(=O)c2SCc2ccccc2)CC1 [compound 17]	5 to 50 µg/mL (≈ 10.6 to 106 µM)	5 to 50 µg/mL (≈ 10.6 to 106 µM)	5 to 50 µg/mL (≈ 10.6 to 106 µM)	5 to 50 µg/mL (≈ 10.6 to 106 µM)	5 to 50 µg/mL
O=c1c(OC2Cc3ccccc3C2)c(N2CCN(Cc3ccoc3)CC2)cnn1-c1ccccc1 [compound 343]	< 0.5 µg/mL	1 to 5 µg/mL (≈ 2.13 to 10.7 µM)	5 to 50 µg/mL (≈ 10.7 to 107 µM)	1 to 5 µg/mL (≈ 2.13 to 10.7 µM)	0.5 to 1 µg/mL
COc1ccc(CCOc2c(N3CCN(Cc4ccccc4O)CC3)cnn(-c3ccccc3)c2=O)cc1 [compound 316]	0.5 to 1 µg/mL (≈ 0.975 to 1.95 µM)	5 to 50 µg/mL (≈ 9.75 to 97.5 µM)	5 to 50 µg/mL (≈ 9.75 to 97.5 µM)	5 to 50 µg/mL (≈ 9.75 to 97.5 µM)	1 to 5 µg/mL
O=c1c(SCc2ccccc2)c(N2CCN(Cc3cc(O)cc(O)c3)CC2)cnn1-c1ccccc1 [compound 1]	5 to 50 µg/mL (≈ 9.99 to 99.9 µM)	1 to 5 µg/mL (≈ 2 to 9.99 µM)	5 to 50 µg/mL (≈ 9.99 to 99.9 µM)	5 to 50 µg/mL (≈ 9.99 to 99.9 µM)	5 to 50 µg/mL
COc1ccc(Sc2c(N3CCN(S(=O)(=O)c4cccs4)CC3)cnn(-c3ccccc3)c2=O)cc1 [compound 66]	1 to 5 µg/mL (≈ 1.85 to 9.25 µM)	0.5 to 1 µg/mL (≈ 0.925 to 1.85 µM)	5 to 50 µg/mL (≈ 9.25 to 92.5 µM)	5 to 50 µg/mL (≈ 9.25 to 92.5 µM)	1 to 5 µg/mL
CC(C)OCCCNc1c(N2CCN(S(=O)(=O)Cc3ccccc3)CC2)cnn(-c2ccccc2)c1=O [compound 254]	1 to 5 µg/mL (≈ 1.9 to 9.51 µM)	1 to 5 µg/mL (≈ 1.9 to 9.51 µM)	5 to 50 µg/mL (≈ 9.51 to 95.1 µM)	5 to 50 µg/mL (≈ 9.51 to 95.1 µM)	5 to 50 µg/mL
CCOC(=O)C1CCCN(c2c(N3CCN(S(=O)(=O)c4c(F)cccc4F)CC3)cnn(-c3ccccc3)c2=O)C1 (stereo not shown) [compound 236]	1 to 5 µg/mL (≈ 1.7 to 8.51 µM)	0.5 to 1 µg/mL (≈ 0.851 to 1.7 µM)	1 to 5 µg/mL (≈ 1.7 to 8.51 µM)	1 to 5 µg/mL (≈ 1.7 to 8.51 µM)	1 to 5 µg/mL
O=c1c(OCCC2CCCCC2)c(N2CCN(Cc3cccc(O)c3)CC2)cnn1-c1ccccc1 [compound 373]	0.5 to 1 µg/mL (≈ 1.02 to 2.05 µM)	1 to 5 µg/mL (≈ 2.05 to 10.2 µM)	5 to 50 µg/mL (≈ 10.2 to 102 µM)	1 to 5 µg/mL (≈ 2.05 to 10.2 µM)	5 to 50 µg/mL
CCOC(=O)C1CCCN(c2c(N3CCN(C(=O)CSc4nccc(C)n4)CC3)cnn(-c3ccccc3)c2=O)C1 (stereo not shown) [compound 130]	5 to 50 µg/mL (≈ 8.65 to 86.5 µM)	1 to 5 µg/mL (≈ 1.73 to 8.65 µM)	5 to 50 µg/mL (≈ 8.65 to 86.5 µM)	5 to 50 µg/mL (≈ 8.65 to 86.5 µM)	5 to 50 µg/mL
CCOC(=O)C1CCCN(c2c(N3CCN(C(=O)c4c[nH]c5ccccc45)CC3)cnn(-c3ccccc3)c2=O)C1 (stereo not shown) [compound 114]	5 to 50 µg/mL (≈ 9.01 to 90.1 µM)	5 to 50 µg/mL (≈ 9.01 to 90.1 µM)	5 to 50 µg/mL (≈ 9.01 to 90.1 µM)	5 to 50 µg/mL (≈ 9.01 to 90.1 µM)	5 to 50 µg/mL
Cc1cccc(CN2CCN(c3cnn(-c4ccccc4)c(=O)c3SC(C)C)CC2)c1 [compound 9]	0.5 to 1 µg/mL (≈ 1.15 to 2.3 µM)	0.5 to 1 µg/mL (≈ 1.15 to 2.3 µM)	5 to 50 µg/mL (≈ 11.5 to 115 µM)	5 to 50 µg/mL (≈ 11.5 to 115 µM)	5 to 50 µg/mL
CCOC(=O)C1CCCN(c2c(N3CCN(C(=O)c4ccc5[nH]cnc5c4)CC3)cnn(-c3ccccc3)c2=O)C1 (stereo not shown) [compound 136]	5 to 50 µg/mL (≈ 9 to 90 µM)	5 to 50 µg/mL (≈ 9 to 90 µM)	5 to 50 µg/mL (≈ 9 to 90 µM)	5 to 50 µg/mL (≈ 9 to 90 µM)	5 to 50 µg/mL
COc1ccc(Sc2c(N3CCN(S(=O)(=O)c4ccccc4)CC3)cnn(-c3ccccc3)c2=O)cc1 [compound 74]	1 to 5 µg/mL (≈ 1.87 to 9.35 µM)	0.5 to 1 µg/mL (≈ 0.935 to 1.87 µM)	5 to 50 µg/mL (≈ 9.35 to 93.5 µM)	1 to 5 µg/mL (≈ 1.87 to 9.35 µM)	1 to 5 µg/mL
